Like-named read-outs stand apart in the source and are kept apart here. Peptide text beside a SMILES is read from it. * marks the point of attachment. Cbz = O=C(OCc1ccccc1)*
Tests used:
[1] = target: T1, Cathepsin-L (Homo sapiens, UniProt P07711); assay: Cathepsin-L Inhibitor Screening Kit (Fluorometric); format: biochemical
T1 construct: purchased BPS Bioscience 79591
Experimental: The effect of MG-132 on Cathepsin-L activity was measured using the Cathepsin-L Inhibitor Screening Kit (Fluorometric) (BPS Bioscience #79591, San Diego, CA, USA). The assay is based on the Cathepsin-L mediated cleavage of a synthetic fluorogenic substrate. Generated AFC is measured on a fluorescence microplate reader. The assay was performed according to the manufacturer protocol but adapted to 384-well format with a final volume of 10 μL. Briefly, compounds (stock in 100% v/v DMSO) are transferred in black 384-well microplates by acoustic dispensing (Echo, Labcyte, Beckman Coulter); 5 µL of diluted Cathepsin-L is added and incubated for 30 min at RT. The enzymatic reaction is initiated by the addition of 5 µL of the substrate. The fluorescence signal is detected in a kinetic mode for 15 min at 37 °C using Ex/Em = […] (Envision, PerkinElmer). Final assay concentrations were: Cathepsin-L 0.01 ng/μL, substrate 5 μM. E-64 provided in the kit was used as a positive control for Cathepsin-L inhibition and assay validation. DMSO was used as compound solvent control (0% inhibition).

[2] = tested on: Cathepsin-L; parameters: method as in https://www.apexbt.com/e-64.html; conditions: ref https://www.apexbt.com/e-64.html; read-out: IC50, Cathepsin-L inhibition, literature value; cited from earlier work
[3] = tested on: SARS-CoV-2 strain BetaCov/Belgium/GHB-03021/2020; parameters: method as in PMID 35287429; conditions: Vero-E6 cells infected by SARS-CoV-2; read-out: EC50, reduction of viral RNA (qPCR); cited from earlier work
[4] = tested on: Mpro; assay: Thermostability assay (TSA); format: binding, SARS-CoV-2; conditions: 1 μM protein, normalized with DMSO
Experimental: A reaction mixture containing the protein at 1 μM final concentration and increasing molar excesses of MG-132 (1×, 3×, 10×, 20×, and 50×) was tested. In each well: 20 μL of buffer 5×, 2 μL of protein stock, the volume of MG-132 stock needed for the fixed molar excess, and Milli-Q H2O to reach 99 μL was added. The protein was left in incubation with the compound for 30 min at room temperature. The plate was put on ice, and 1 μL of 500 × SYPRO orange (Thermo Fischer Scientific) was added in each well. The plate was sealed and centrifuged at 200× g and 4 °C for 1 min. The melting curves were measured in a RT-PCR (Eppendorf, Milan, Italy). After a stationary phase of 2 min at 25 °C, the temperature was increased by 0.5 °C every 30 s until the maximum of 95 °C was reached. Fluorescence has been measured at each step. Each condition has been reproduced in tripled. The Tm control with the protein and the equivalent volume of DMSO only was assessed as well.

[5] = tested on: T2, SARS-CoV-2 protease PLpro; assay: Activity towards PLpro; format: biochemical; conditions: paper in preparation
T2 construct: the papain-like protease (PLpro; nsp3)
Text: Knowing the role of MG-132 in inhibition of the proteasome and representatives of Cathepsin and Calpain proteases, we investigated its role in the inhibition of Cathepsin-L, one of the key enzymes needed for the entry of SARS-CoV-2. Previously, we reported the anti-cytopathic activity of MG-132 in SARS-CoV-2 infected Vero-E cells [see CHEMBL Entry https://www.ebi.ac.uk/chembl/document_report_card/CHEMBL4495565/, accessed on 28 October 2021]. The results were confirmed by different groups reporting antiviral activity also in other cell lines like Huh-7 and Calu-3 all with sub-micromolar EC50 [39]. If we compare the antiviral activity in cells to the high IC50 measured against Mpro it is reasonable to assume that the effect on Mpro is probably too low to justify submicromolar cell activity, and thus it is supported by inhibition of host proteases. We have measured no activity towards the second SARS-CoV-2 protease PLpro (paper in preparation).

[6] = tested on: SARS-CoV-2 in Huh-7; parameters: method as in PMID 33811811; conditions: Huh-7 cells; cited from earlier work
[7] = tested on: SARS-CoV-2 in Calu-3; parameters: method as in PMID 33811811; conditions: Calu-3 cells; cited from earlier work
[8] = tested on: SARS-CoV-2 main protease (Mpro); parameters: method as in PMID 35287429; conditions: read-out: IC50 in the Mpro enzymatic assay, cited from earlier work
[9] = tested on: rat liver isolated Cathepsin-L; parameters: method as in PMID 18830882; conditions: cited from earlier work

T1 sequence (P07711 114-333): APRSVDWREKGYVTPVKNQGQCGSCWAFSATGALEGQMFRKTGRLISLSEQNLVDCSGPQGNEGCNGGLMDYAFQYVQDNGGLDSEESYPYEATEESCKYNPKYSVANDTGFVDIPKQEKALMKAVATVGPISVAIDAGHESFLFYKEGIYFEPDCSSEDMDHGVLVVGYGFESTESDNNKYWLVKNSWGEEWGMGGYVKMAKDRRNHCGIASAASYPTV

SMILES: CC(C)C[C@H](NC(=O)[C@H]1O[C@@H]1C(=O)O)C(=O)NCCCCN=C(N)N [E64]
- IC50 ([1]; Cathepsin-L 0.01 ng/μL, substrate 5 μM, 30 min incubation at RT, read-out: IC50, Cathepsin-L inhibition): 2.7e-09 M
- HillSlope, Cathepsin-L inhibition ([1]; fit values given in Figure 6): -2.040
- LogIC50, Cathepsin-L inhibition ([1]; fit values given in Figure 6): -8.560
- IC50 ([1]; fit values given in Figure 6, read-out: IC50 (M), Cathepsin-L inhibition): 2.75e-09 M
- IC50 [2]: 2.5 nM

SMILES: CC(C)C[C@@H](C=O)NC(=O)[C@H](CC(C)C)NC(=O)[C@H](CC(C)C)NC(=O)OCc1ccccc1 [MG-132] (Cbz-Leu-Leu-Leu-aldehyde)
- EC50 [3]: 100 nM
- IC50 ([1]; IC50 (M), Cathepsin-L inhibition, fit values given in Figure 6): 1.55e-10 M
- IC50 ([1]; IC50, Cathepsin-L inhibition, Cathepsin-L 0.01 ng/μL, substrate 5 μM, 30 min incubation at RT): 1.5e-10 M
- HillSlope, Cathepsin-L inhibition ([1]; fit values given in Figure 6): -1.826
- LogIC50, Cathepsin-L inhibition ([1]; fit values given in Figure 6): -9.811
- ΔTm ([4]; 50 molar excess of inhibitor): 3.5 °C
- ΔTm ([4]; one molar excess of inhibitor): 0.5 °C
- activity towards PLpro [5]: no activity
- EC50, antiviral activity [6]: sub-micromolar
- EC50, antiviral activity [7]: sub-micromolar
- IC50 [8]: 7.4 µM
- IC50 ([8]; with 1 mM DTT): 4.7 µM
- EC50 [9]: 163 nM

Reference: paper PMC8583849 (International Journal of Molecular Sciences, 2021)
